Reference: US7220824B1, “Integrin-mediated drug targeting” (Bayer Aktiengesellschaft, priority 2000, dated 2007)
Read-outs that look alike come from different tables or passages of the source.

Legend:
[1] = biological target: T1, αvβ3 receptor (αvβ3 from human A375 cells) (Homo sapiens, UniProt P05106+P06756); assay: αvβ3 binding test (echistatin displacement, WGA SPA beads)
T1 construct: αvβ3 from human A375 cells was purified analogously to a procedure which was described by Wong et al; endogenous in cells; host or cells: human A375 cells; the receptor was purified from the cells and used detergent-solubilised (n-octyl-glucopyranoside)
Description: αvβ3 from human A375 cells was purified analogously to a procedure which was described by Wong et al. (Molecular Pharmacology, 50, 529–537 (1996)). In each case, 10 μl of αvβ3 (5 ng) in TBS pH 7.6, 2 mM CaCl2, 1 mM MgCl2, 1% n-octyl-glucopyranoside (Sigma); 10 μl of test substance in TBS pH 7.6, 0.1% DMSO and 45 μl of TBS pH 7.6, 2 mM CaCl2, 1 mM MgCl2, 1 mM MnCl2 were incubated at room temperature for 1 h. In each case, 25 μl of WGA SPA beads (Amersham, 4 mg/ml) and 10 μl of echistatin ([…], Amersham, chloramine-T labelled) were then added. After 16 hours at room temperature, the samples were measured in a scintillation measuring apparatus (Wallac 1450).

MDA-MB 231 = assay: Growth inhibition test (MTT), cytotoxic action on tumour cell lines; type: cell-based; conditions: Homo sapiens, MDA-MB-231, 144 h, read-out: IC50 values of the cytotoxic action on tumour cell lines, MDA-MB 231
Description: (§1) The human large intestine cell lines SW 480 and HT29 (ATCC No. CCL 228 and HTB38), the human breast cell lines MDA-MB 231, MCF-7 and BT20 (ATCC No. HTB-, 26, 22 and 23) and the mouse melanoma cell line B16F 10 (CRL 6475) were grown to confluence in Roux dishes in RPMI 1640 medium with addition of 10% FCS. They were then trypsinized and taken up in RPMI plus 10% FCS to a cell count of 50,000 cells or, for B16F10, 20,000 cells per ml. 100 μl of cell suspension/well were added to a 96 microwell plate and incubated at 37° C. for 1 day in a CO2 incubator. A further 100 μl of RPMI medium and 1 μl of DMSO were then added with the test substances. The growth was checked after day 6. For this, 25 μl of MTT solution (3-(4,5-dimethylthiazol-2-yl)-2,5-diphenyltetrazolium bromide) was added to each well at a starting concentration of 5 mg/ml of H2O. The plate was incubated at 37° C. for 5 hours in a CO2 incubator. The medium was then aspirated and 100 μl of i-propanol/well were added. After shaking with 100 μl of H2O for 30 min, the extinction was measured at 595-nm using a Multiplate Reader (BIO-RAD 3550-UV).
(§2) The cytostatic action is indicated in Table 2 as an IC50 value, in each case for the individual cell lines.

B16F10 = assay: as above; type: cell-based; conditions: Mus musculus, B16-F10, 144 h, read-out: IC50 values of the cytotoxic action on tumour cell lines, B16F10
Description: as §1, §2

MCF7 = assay: as above; type: cell-based; conditions: Homo sapiens, MCF7, 144 h, read-out: IC50 values of the cytotoxic action on tumour cell lines, MCF7
Description: as §1, §2

HT 29 = assay: as above; type: cell-based; conditions: Homo sapiens, HT-29, 144 h, read-out: IC50 values of the cytotoxic action on tumour cell lines, HT 29
Description: as §1, §2

BT20 = assay: as above; type: cell-based; conditions: Homo sapiens, BT-20, 144 h, read-out: IC50 values of the cytotoxic action on tumour cell lines, BT20
Description: as §1, §2

SW480 = assay: as above; type: cell-based; conditions: Homo sapiens, SW480, 144 h, read-out: IC50 values of the cytotoxic action on tumour cell lines, SW480
Description: as §1, §2

[2] = αvβ3 purified from human A375 cells, labelled echistatin, read-out: IC50 values of the binding to the αvβ3 receptor

T1 sequence (P06756 31-889 limits assumed): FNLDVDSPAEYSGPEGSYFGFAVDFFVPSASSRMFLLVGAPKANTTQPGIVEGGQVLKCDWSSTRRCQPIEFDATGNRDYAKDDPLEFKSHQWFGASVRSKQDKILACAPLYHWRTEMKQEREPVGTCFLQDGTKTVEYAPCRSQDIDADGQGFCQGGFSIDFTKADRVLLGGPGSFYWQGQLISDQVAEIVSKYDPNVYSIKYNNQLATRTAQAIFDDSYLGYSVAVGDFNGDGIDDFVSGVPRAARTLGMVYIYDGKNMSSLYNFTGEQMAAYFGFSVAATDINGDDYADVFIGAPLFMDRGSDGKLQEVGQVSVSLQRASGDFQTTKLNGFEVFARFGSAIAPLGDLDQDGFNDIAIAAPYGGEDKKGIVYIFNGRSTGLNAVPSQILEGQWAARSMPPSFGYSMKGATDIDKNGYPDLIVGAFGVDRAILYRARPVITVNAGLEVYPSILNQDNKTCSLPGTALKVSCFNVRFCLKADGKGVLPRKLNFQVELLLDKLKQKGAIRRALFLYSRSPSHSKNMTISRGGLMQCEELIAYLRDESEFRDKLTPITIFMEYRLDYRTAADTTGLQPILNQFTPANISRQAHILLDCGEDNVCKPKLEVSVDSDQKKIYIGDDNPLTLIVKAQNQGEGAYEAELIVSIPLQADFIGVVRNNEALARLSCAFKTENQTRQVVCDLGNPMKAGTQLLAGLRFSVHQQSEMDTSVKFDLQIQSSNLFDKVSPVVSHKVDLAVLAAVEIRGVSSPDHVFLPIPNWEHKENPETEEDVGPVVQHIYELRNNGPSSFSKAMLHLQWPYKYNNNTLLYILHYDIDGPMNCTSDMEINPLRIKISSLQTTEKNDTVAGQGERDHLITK
T1 sequence (P06756 891-1048 partner limits assumed): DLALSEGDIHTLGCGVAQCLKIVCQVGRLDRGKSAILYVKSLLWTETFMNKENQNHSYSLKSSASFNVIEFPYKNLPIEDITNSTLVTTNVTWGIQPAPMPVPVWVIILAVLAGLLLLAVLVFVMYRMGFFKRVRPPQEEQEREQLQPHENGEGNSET
T1 sequence (P05106 27-788): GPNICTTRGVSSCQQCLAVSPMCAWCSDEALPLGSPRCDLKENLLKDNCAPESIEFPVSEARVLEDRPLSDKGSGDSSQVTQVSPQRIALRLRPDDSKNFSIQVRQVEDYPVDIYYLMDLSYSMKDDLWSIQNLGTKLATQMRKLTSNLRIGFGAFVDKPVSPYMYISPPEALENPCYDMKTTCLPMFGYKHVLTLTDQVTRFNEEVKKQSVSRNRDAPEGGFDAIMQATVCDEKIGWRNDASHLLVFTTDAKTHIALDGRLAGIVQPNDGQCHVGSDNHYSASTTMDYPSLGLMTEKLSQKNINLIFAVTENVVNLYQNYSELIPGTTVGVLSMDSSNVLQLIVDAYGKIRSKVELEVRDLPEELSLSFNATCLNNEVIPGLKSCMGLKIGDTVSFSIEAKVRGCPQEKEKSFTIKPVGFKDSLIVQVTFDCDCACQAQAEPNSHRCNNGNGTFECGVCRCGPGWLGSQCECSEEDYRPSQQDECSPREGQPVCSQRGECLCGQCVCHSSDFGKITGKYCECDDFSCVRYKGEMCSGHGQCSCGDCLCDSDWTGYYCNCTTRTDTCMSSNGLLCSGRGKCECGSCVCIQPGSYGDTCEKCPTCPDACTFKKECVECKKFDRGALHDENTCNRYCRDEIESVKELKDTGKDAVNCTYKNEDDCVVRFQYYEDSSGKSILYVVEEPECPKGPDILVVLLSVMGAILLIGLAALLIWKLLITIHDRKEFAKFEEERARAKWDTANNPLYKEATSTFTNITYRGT

| Compound | IC50 [1, 2] [nM] | IC50 (MDA-MB 231) [nM] | IC50 (B16F10) [nM] | IC50 (MCF7) [nM] | IC50 (HT 29) [nM] | IC50 (BT20) [nM] | IC50 (SW480) [nM] | IC50 [1] [nM] |
| --- | --- | --- | --- | --- | --- | --- | --- | --- |
| CC[C@@]1(OC(=O)[C@@H](NC(=O)Nc2cccc(-c3ccc(C[C@H](NS(=O)(=O)CC45CCC(CC4=O)C5(C)C)C(=O)O)cc3)c2)C(C)C)C(=O)OCc2c1cc1n(c2=O)Cc2cc3ccccc3nc2-1 (stereo partly shown) [Example 2.8] | 83 | 15 | 200 | 10 | 10 | 9 | 20 | – |
| CC[C@@]1(OC(=O)[C@@H](NC(=O)[C@H](CCCCNC(=O)OCC2c3ccccc3-c3ccccc32)NC(=O)Nc2cccc(-c3cccc(S(=O)(=O)NC(CC(=O)O)c4ccccc4)c3)c2)C(C)C)C(=O)OCc2c1cc1n(c2=O)Cc2cc3ccccc3nc2-1 (stereo partly shown) [Example 2.9] | – | 700 | 300 | 300 | 700 | 1500 | 1000 | 236 |
| CC[C@@]1(OC(=O)[C@@H](NC(=O)[C@H](Cc2c[nH]cn2)NC(=O)Nc2cccc(-c3cccc(S(=O)(=O)NC(CC(=O)O)c4ccccc4)c3)c2)C(C)C)C(=O)OCc2c1cc1n(c2=O)Cc2cc3ccccc3nc2-1 (stereo partly shown) [Example 2.10] | 101 | 400 | 2000 | 1500 | 700 | 1000 | 1000 | – |
| CCC1(OC(=O)[C@@H](NC(=O)[C@H](Cc2c[nH]cn2)NC(=O)Nc2cccc(-c3ccc(S(=O)(=O)NC(CC(=O)O)c4ccccc4)cc3)c2)C(C)C)C(=O)OCc2c1cc1n(c2=O)Cc2cc3ccccc3nc2-1 (stereo partly shown) [Example 2.11] | 197 | 600 | 800 | 500 | 400 | 400 | 600 | – |
| CCC1(OC(=O)[C@@H](NC(=O)Nc2cccc(-c3ccc(S(=O)(=O)NC(CC(=O)O)c4ccccc4)cc3)c2)C(C)C)C(=O)OCc2c1cc1n(c2=O)Cc2cc3ccccc3nc2-1 (stereo partly shown) [Example 2.12] | 127 | 10 | 20 | 10 | 9 | 8 | 20 | – |
| CC[C@@]1(OC(=O)[C@@H](NC(=O)Nc2cccc(-c3cccc(S(=O)(=O)NC(CC(=O)O)c4ccccc4)c3)c2)C(C)C)C(=O)OCc2c1cc1n(c2=O)Cc2cc3ccccc3nc2-1 (stereo partly shown) [Example 2.13] | 97 | 20 | 20 | 10 | 15 | 5 | 15 | – |
| CC[C@@]1(OC(=O)[C@@H](NC(=O)[C@H](CCCCNC(=O)OCC2c3ccccc3-c3ccccc32)NC(=O)Nc2cccc(-c3ccc(S(=O)(=O)NC(CC(=O)O)c4ccccc4)cc3)c2)C(C)C)C(=O)OCc2c1cc1n(c2=O)Cc2cc3ccccc3nc2-1 (stereo partly shown) [Example 2.14] | – | 300 | 25 | 150 | 300 | 200 | 300 | 84 |
| CC[C@@]1(OC(=O)[C@@H](NC(=O)[C@H](Cc2c[nH]cn2)NC(=S)Nc2ccc(C(=O)NC(CC(=O)O)c3cccc(NS(=O)(=O)c4cccc(NC(=N)N)c4)c3)cc2)C(C)C)C(=O)OCc2c1cc1n(c2=O)Cc2cc3ccccc3nc2-1 (stereo partly shown) [Example 3.3] | – | 100 | – | 100 | 90 | 150 | 300 | 45 |
| CC[C@@]1(O)C(=O)OCc2c1cc1n(c2=O)Cc2cc3c(NC(=S)NC(CC(=O)O)c4cccc(NS(=O)(=O)c5cccc(NC(=N)N)c5)c4)cccc3nc2-1 (stereo partly shown) [Example 3.17] | 66 | 3000 | 5000 | – | 600 | 5000 | 800 | – |
